Experimental data: PubChem BioAssay (NCI)
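Briefly, cells in 96-well plates were exposed to five compound concentrations for 48 h, and endpoints were estimated by linear interpolation. GI50 = concentration required for 50% inhibition of growth. Definition used: TGI = concentration required for complete inhibition of growth.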

Experiments:
Experiment in all cases: NCI tumour cell line growth inhibition, 48 h
MDA-MB-231 breast = tested on: MDA-MB-231 breast
CAKI-1 renal = tested on: CAKI-1 renal
UO-31 renal = tested on: UO-31 renal
SR leukemia = tested on: SR leukemia
SF-539 CNS = tested on: SF-539 CNS
CCRF-CEM leukemia = tested on: CCRF-CEM leukemia
SNB-75 CNS = tested on: SNB-75 CNS
A549 NSCLC = tested on: A549 NSCLC
COLO 205 colon = tested on: COLO 205 colon
SK-OV-3 ovarian = tested on: SK-OV-3 ovarian
OVCAR-5 ovarian = tested on: OVCAR-5 ovarian
NCI-H226 lung = tested on: NCI-H226 lung
SK-MEL-2 melanoma = tested on: SK-MEL-2 melanoma
RXF 393 renal = tested on: RXF 393 renal
SK-MEL-5 melanoma = tested on: SK-MEL-5 melanoma
OVCAR-3 ovarian = tested on: OVCAR-3 ovarian
OVCAR-8 ovarian = tested on: OVCAR-8 ovarian
U251 CNS = tested on: U251 CNS
MOLT-4 leukemia = tested on: MOLT-4 leukemia
MCF7 breast = tested on: MCF7 breast
786-0 renal = tested on: 786-0 renal
SK-MEL-28 melanoma = tested on: SK-MEL-28 melanoma
BT-549 breast = tested on: BT-549 breast
DU-145 prostate = tested on: DU-145 prostate
NCI/ADR-RES ovarian = tested on: NCI/ADR-RES ovarian
HT29 colon = tested on: HT29 colon
LOX IMVI melanoma = tested on: LOX IMVI melanoma
MDA-MB-435 = tested on: MDA-MB-435
IGROV1 ovarian = tested on: IGROV1 ovarian
KM12 colon = tested on: KM12 colon
MALME-3M melanoma = tested on: MALME-3M melanoma
PC-3 prostate = tested on: PC-3 prostate
M14 melanoma = tested on: M14 melanoma
A498 renal = tested on: A498 renal
SW-620 colon = tested on: SW-620 colon
NCI-H23 lung = tested on: NCI-H23 lung
NCI-H460 lung = tested on: NCI-H460 lung
HL-60(TB) leukemia = tested on: HL-60(TB) leukemia
ACHN renal = tested on: ACHN renal
NCI-H522 lung = tested on: NCI-H522 lung
K-562 leukemia = tested on: K-562 leukemia
SF-295 CNS = tested on: SF-295 CNS
HOP-92 NSCLC = tested on: HOP-92 NSCLC
UACC-257 melanoma = tested on: UACC-257 melanoma
HCT-15 colon = tested on: HCT-15 colon
TK-10 renal = tested on: TK-10 renal
RPMI-8226 leukemia = tested on: RPMI-8226 leukemia
UACC-62 melanoma = tested on: UACC-62 melanoma
SNB-19 CNS = tested on: SNB-19 CNS
HS 578T breast = tested on: HS 578T breast
HOP-62 NSCLC = tested on: HOP-62 NSCLC
OVCAR-4 ovarian = tested on: OVCAR-4 ovarian
SN12C renal = tested on: SN12C renal
T-47D breast = tested on: T-47D breast
HCC-2998 colon = tested on: HCC-2998 colon
HCT-116 colon = tested on: HCT-116 colon
EKVX NSCLC = tested on: EKVX NSCLC
SF-268 CNS = tested on: SF-268 CNS

SMILES: CC1=C(CN(O)C(N)=O)C2=C(C)C3(CC3)[C@](C)(O)C(=O)C2=C1
- GI50 (MDA-MB-231 breast): 1110 nM
- TGI (MDA-MB-231 breast): 5880 nM
- GI50 (CAKI-1 renal): 1910 nM
- TGI (CAKI-1 renal): > 100000 nM
- GI50 (UO-31 renal): 254 nM
- TGI (UO-31 renal): 830 nM
- GI50 (SR leukemia): 896 nM
- TGI (SR leukemia): > 100000 nM
- GI50 (SF-539 CNS): 2080 nM
- TGI (SF-539 CNS): 6380 nM
- GI50 (CCRF-CEM leukemia): 2220 nM
- TGI (CCRF-CEM leukemia): > 100000 nM
- GI50 (SNB-75 CNS): 1280 nM
- TGI (SNB-75 CNS): 3390 nM
- GI50 (A549 NSCLC): 3030 nM
- TGI (A549 NSCLC): > 100000 nM
- GI50 (COLO 205 colon): 753 nM
- TGI (COLO 205 colon): 4580 nM
- GI50 (SK-OV-3 ovarian): 2620 nM
- TGI (SK-OV-3 ovarian): 9960 nM
- GI50 (OVCAR-5 ovarian): 374 nM
- TGI (OVCAR-5 ovarian): 5070 nM
- GI50 (NCI-H226 lung): 2030 nM
- TGI (NCI-H226 lung): 6360 nM
- GI50 (SK-MEL-2 melanoma): 2110 nM
- TGI (SK-MEL-2 melanoma): 4850 nM
- GI50 (RXF 393 renal): 328 nM
- TGI (RXF 393 renal): 1190 nM
- GI50 (SK-MEL-5 melanoma): 5610 nM
- TGI (SK-MEL-5 melanoma): 18500 nM
- GI50 (OVCAR-3 ovarian): 557 nM
- TGI (OVCAR-3 ovarian): 4150 nM
- GI50 (OVCAR-8 ovarian): 634 nM
- TGI (OVCAR-8 ovarian): > 100000 nM
- GI50 (U251 CNS): 3470 nM
- TGI (U251 CNS): > 100000 nM
- GI50 (MOLT-4 leukemia): 9020 nM
- TGI (MOLT-4 leukemia): > 100000 nM
- GI50 (MCF7 breast): 366 nM
- TGI (MCF7 breast): > 100000 nM
- GI50 (786-0 renal): 2360 nM
- TGI (786-0 renal): 15500 nM
- GI50 (SK-MEL-28 melanoma): 732 nM
- TGI (SK-MEL-28 melanoma): 3000 nM
- GI50 (BT-549 breast): 1180 nM
- TGI (BT-549 breast): 3180 nM
- GI50 (DU-145 prostate): 452 nM
- TGI (DU-145 prostate): 26000 nM
- GI50 (NCI/ADR-RES ovarian): 2000 nM
- TGI (NCI/ADR-RES ovarian): 31200 nM
- GI50 (HT29 colon): 412 nM
- TGI (HT29 colon): 13900 nM
- GI50 (LOX IMVI melanoma): 6380 nM
- TGI (LOX IMVI melanoma): 36600 nM
- GI50 (MDA-MB-435): 382 nM
- TGI (MDA-MB-435): 1430 nM
- GI50 (IGROV1 ovarian): 2240 nM
- TGI (IGROV1 ovarian): 6380 nM
- GI50 (KM12 colon): 798 nM
- TGI (KM12 colon): 11500 nM
- GI50 (MALME-3M melanoma): 1830 nM
- TGI (MALME-3M melanoma): 3880 nM
- GI50 (PC-3 prostate): 1460 nM
- TGI (PC-3 prostate): 11500 nM
- GI50 (M14 melanoma): 819 nM
- TGI (M14 melanoma): 2960 nM
- GI50 (A498 renal): 1350 nM
- TGI (A498 renal): 3250 nM
- GI50 (SW-620 colon): 1080 nM
- TGI (SW-620 colon): > 100000 nM
- GI50 (NCI-H23 lung): 2280 nM
- TGI (NCI-H23 lung): 9830 nM
- GI50 (NCI-H460 lung): 2550 nM
- TGI (NCI-H460 lung): > 100000 nM
- GI50 (HL-60(TB) leukemia): 952 nM
- TGI (HL-60(TB) leukemia): > 100000 nM
- GI50 (ACHN renal): 1130 nM
- TGI (ACHN renal): 8690 nM
- GI50 (NCI-H522 lung): 721 nM
- TGI (NCI-H522 lung): 4600 nM
- GI50 (K-562 leukemia): 1390 nM
- TGI (K-562 leukemia): > 100000 nM
- GI50 (SF-295 CNS): 789 nM
- TGI (SF-295 CNS): > 100000 nM
- GI50 (HOP-92 NSCLC): 1080 nM
- TGI (HOP-92 NSCLC): 4210 nM
- GI50 (UACC-257 melanoma): 3020 nM
- TGI (UACC-257 melanoma): 31300 nM
- GI50 (HCT-15 colon): 1290 nM
- TGI (HCT-15 colon): 24800 nM
- GI50 (TK-10 renal): 2010 nM
- TGI (TK-10 renal): 8020 nM
- GI50 (RPMI-8226 leukemia): 348 nM
- TGI (RPMI-8226 leukemia): 2670 nM
- GI50 (UACC-62 melanoma): 1290 nM
- TGI (UACC-62 melanoma): 3060 nM
- GI50 (SNB-19 CNS): 2580 nM
- TGI (SNB-19 CNS): > 100000 nM
- GI50 (HS 578T breast): 2630 nM
- TGI (HS 578T breast): 9160 nM
- GI50 (HOP-62 NSCLC): 1850 nM
- TGI (HOP-62 NSCLC): 58700 nM
- GI50 (OVCAR-4 ovarian): 1790 nM
- TGI (OVCAR-4 ovarian): 9190 nM
- GI50 (SN12C renal): 2620 nM
- TGI (SN12C renal): > 100000 nM
- GI50 (T-47D breast): 992 nM
- TGI (T-47D breast): > 100000 nM
- GI50 (HCC-2998 colon): 219 nM
- TGI (HCC-2998 colon): 540 nM
- GI50 (HCT-116 colon): 1390 nM
- GI50 (EKVX NSCLC): 2340 nM
- TGI (EKVX NSCLC): 6850 nM
- GI50 (SF-268 CNS): 1720 nM
- TGI (SF-268 CNS): > 100000 nM
